Values quoted from earlier work as cited in US20140271726A1, “COMPOSITIONS AND METHODS FOR […] SUSCEPTIBILITY TO ANTIVIRAL AGENTS” (WISCONSIN ALUMNI RESEARCH FOUNDATION, priority 2013, published 2014).

Tested on: HCV genotype 3
Settings: genotype 3 patient, short duration monotherapy

## C/C=C/C[C@@H](C)[C@@H](O)[C@H]1C(=O)N[C@@H](CC)C(=O)N(C)[C@H](C)C(=O)N(CC)[C@@H](C(C)C)C(=O)N[C@@H](C(C)C)C(=O)N(C)[C@@H](CC(C)C)C(=O)N[C@@H](C)C(=O)N[C@H](C)C(=O)N(C)[C@@H](CC(C)C)C(=O)N(C)[C@@H](CC(C)C)C(=O)N(C)[C@@H](C(C)C)C(=O)N1C [alisprovir]
  clinical outcome: cured
